Experimental data published in patent publication US20250161243A1, “MEF2 TRANSCRIPTIONAL ACTIVATORS TO TREAT NEUROLOGIC CONDITIONS” (The Scripps Research Institute, priority 2022, published 2025).
“Also recorded” adds a separate entry of the source.

Assays:
[1] = system: MEF2C haploinsufficient (MHCS) patient hiPSC-derived cerebrocortical neurons; experiment: MAP2 protein expression (immunoblot) in MCHS patient hiPSC-derived cerebrocortical neurons; assay type: cell-based, human; conditions: MCHS neurons versus WT control, in vitro
Excerpt: FIGS. 5A and 5B. […] (FIG. 4A) MAP2 protein expression in neurons treated with AR-42 and (n=3 in 2 independent experiments). (FIG. 4B) Representative immunoblot of MAP2 expression and GAPDH loading control. Data represented as mean±SEM. * P<0.05 by one-way ANOVA and Tukey post-hoc test.
Additionally, the neurons of patients with MEF2C haploinsufficiency syndrome (MCHS) display shorter neurites. The neuronal marker MAP2 was monitored as a biomarker for neurites in the MCHS hiPSC-derived neurons versus WT control: compromised levels of MAP2 were found, but they were corrected by treatment with AR-42 in vitro (FIGS. 6A and 6B). These types of assays correlate well with improvement in behavioral studies in this type of ASD/ID, as illustrated by the use mouse models of MCHS (S. Tu (2017)).

[2] = system: MEF2C haploinsufficiency syndrome (MCHS) patient hiPSC-derived cerebrocortical neurons; experiment: Calcium events (fluo-4AM) in MCHS patient hiPSC-derived cerebrocortical neurons; assay type: cell-based, human; conditions: MCHS neurons against isogenic WT control
Excerpt: FIGS. 6A and 6B. AR-42 decreases hyperelectrical activity in MEF2C haploinsufficiency syndrome (MCHS) patient hiPSC-derived cerebrocortical neurons. (FIG. 5A) Representative traces of calcium events using fluo-4AM calcium-sensitive dye in hiPSC-derived neurons. […] (FIG. 5B) Quantification of calcium event frequency. Data represent mean±SEM. Sample size was 5 neurons imaged per coverslip in 3 coverslips. * P<0.05 by one-way ANOVA and Tukey post-hoc test.
(§1) In an embodiment, a compound for use in a method as described herein is AR-42 (Table 1).

[3] = system: MEF2 transcriptional activity; experiment: Confirmatory screen and Renilla counter-screen of MEF2 reporter activity; assay type: cell-based, human; conditions: n=3
Excerpt: FIG. 4. Dose-response for hits in the Renilla counterscreen. Dose response plots for AR-42, that had high EC50 and >3-fold increase in MEF2 activity in the primary screen. (n=3).
as §1

[4] = system: MEF2 transcriptional activity; experiment: MEF2 transcriptional activity screen (Luciferase-MEF2 reporter in human neural progenitor cells); assay type: cell-based

EC50 ([4]; Homo sapiens, concentration for half-maximal activity derived from the hill equation model, MEF2 luciferase reporter, read-out: qAC50): 438 nM
SMILES: CC(C)[C@H](C(=O)Nc1ccc(C(=O)NO)cc1)c1ccccc1 [AR-42]
MAP2 levels (neurite biomarker) [1]: increase MAP2 levels; also recorded: corrected
aberrant hyperactivity (Ca^2+ signaling, calcium event frequency) [2]: normalizes this aberrant, excessive activity; also recorded: decreased aberrant hyperactivity
MEF2 transcriptional activity corrected with control Renilla-based (non-specific) reporter [3]: increased MEF2 transcriptional activity
increase in MEF2 activity in the primary screen ([4]; primary screen, 10 μM): > 3 fold
